From US7414070B2, “Indol-7-YL sulfonamide derivatives, their preparation and their use in pharmaceutical compositions” (Laboratorios del Dr. ESTEVE S.A., priority 2003, dated 2008)
Where a name gives a salt, the structure may show the parent alone.

| Compound | melting point [°C] |
| --- | --- |
| O=S(=O)(CCc1cccc2ccccc12)Nc1cccc2ccn(CCN3CCCC3)c12 [Example 8, 2-(naphth-1-yl)-N-(1-(2-(pyrrolidin-1-yl)ethyl)-1H-indol-7-yl)ethansulfonamide] | 46 to 49 |
| Cc1c(S(=O)(=O)Nc2cccc3ccn(CCN(C)C)c23)sc2ccc(Cl)cc12 [Example 2, N-[1-(2-dimethylaminoethyl)-1H-indole-7-yl]-5-chloro-3-methyl-benzo[b]thiophene-2-sulfonamide] | 57 to 65 |
| CN(C)CCn1ccc2cccc(NS(=O)(=O)c3ccc(-c4ccccc4)cc3)c21 [Example 3, N-[1-(2-dimethylaminoethyl)-1H-indole-7-yl]-4 phenylbenzenesulfonamide] | 137 to 140 |
| O=S(=O)(Nc1cccc2ccn(CCN3CCCC3)c12)c1cccc2ccccc12 [Example 6, N-(1-(2-(pyrrolidin-1-yl)ethyl)-1H-indol-7-yl)naphthalene-1-sulfonamide] | 196 to 199 |
| CN(C)CCn1ccc2cccc(NS(=O)(=O)c3c(Cl)nc4sccn34)c21 [Example 4, N-[1-(2-dimethylaminoethyl)-1H-indole-7-yl]-6-chloroimidazo[2,1-b]thiazole-5-sulfonamide] | 73 to 76 |
| O=S(=O)(Nc1cccc2ccn(CCN3CCCC3)c12)c1c(Cl)nc2sccn12 (as salt: TFA) [Example 7, 6-chloro-N-(1-(2-(pyrrolidin-1-yl)ethyl)-1H-indol-7-yl)imidazo[2,1-b]thiazole-5-sulfonamide] | 92 to 95 |
